The data set relates to B16F10 cells. The experiment in a line: MTT assay, cell viability. Format: cell-based. The protocol:
A melanocyte (B16F10) cell line was cultured using DMEM containing 10% FBS and 1% penicillin/streptomycin (PS) at 37° C. in a 5% CO2 incubator.
An MTT reagent was used by being diluted in DMEM at a concentration of 0.5 mg/mL.
B16F10 cells were seeded at 230,000 cells/well in a 6-well plate, and cultured at 37° C. in a 5% CO2 incubator for 24 hours. Subsequently, the cells were treated with peptide KH001 (SEQ ID NO: 96) at different concentrations for 72 hours to prepare the cells, and then the MTT reagent was added and allowed to react in a 37° C. incubator for 1 hour under light blocking conditions. After removing the entire medium, the generated formazan was dissolved in DMSO, and then absorbance was measured at 560 nm.
B16F10 cells were treated with the KH001 peptide at different concentrations. After 72 hours after KH001 peptide treatment, cell viability was measured using an MTT assay.

Where no end group is shown, it is not given here.

With KYKQKRRSYK [KH001, KYKQKRRSYK], the “cell viability compared to the control” value (50 μM, 100 μM and 200 μM, 72 hours, MTT) is on record as “no significant difference”. Besides, the toxicity entry (at the predetermined concentrations (50, 100, 200 μM)) is reported as “no toxicity”.
